{"source": "patent US11427567B2", "about": "“Imidazolyl pyrimidinylamine compounds as CDK2 inhibitors” (Incyte Corporation, priority 2019, dated 2022)"}
{"biological_target": "CDK2/Cyclin E1 (Homo sapiens (Human), UniProt P24941)", "assay": "CDK2/Cyclin E1 HTRF enzyme activity assay (Example A)", "assay_type": "biochemical", "conditions": "1 mM ATP", "procedure": "Assays were conducted in white 384-well polystyrene plates in a final reaction volume of 8 μL. […] HTRF signals were read after 1 hour at room temperature on a PHERAstar FS plate reader (BMG Labtech). Data was analyzed with IDBS XLFit and GraphPad Prism 5.0 software using a three or four parameter dose response curve to determine IC50 for each compound.", "units": {"IC50": "nM"}}
{"smiles": "CS(=O)(=O)N1CCC(Nc2ncc(C(F)(F)F)c(-c3cn(-c4ccc(CCN5CCCCC5)cc4C#N)cn3)n2)CC1", "note": "[Example 458, 2-(4-(2-((1-(Methylsulfonyl)piperidin-4-yl)amino)-5-(trifluoromethyl)pyrimidin-4-yl)-1H-imidazol-1-yl)-5-(2-(piperidin-1-yl)ethyl)benzonitrile]", "IC50": "≤ 50"}
{"smiles": "Cc1nc(-c2nc(NC3CCN(S(C)(=O)=O)CC3)ncc2C(F)(F)F)cn1-c1ccc(CCCN2CCC2)cc1F", "note": "[Example 459, 4-(1-(4-(3-(Azetidin-1-yl)propyl)-2-fluorophenyl)-2-methyl-1H-imidazol-4-yl)-N-(1-(methylsulfonyl)piperidin-4-yl)-5-(trifluoromethyl)pyrimidin-2-amine]", "IC50": "≤ 50"}
{"smiles": "CCN(C)CCCc1ccc(-n2cc(-c3nc(NC4CCN(S(C)(=O)=O)CC4)ncc3C(F)(F)F)nc2C)c(F)c1", "note": "[Example 460, 4-(1-(4-(3-(Ethyl(methyl)amino)propyl)-2-fluorophenyl)-2-methyl-1H-imidazol-4-yl)-N-(1-(methylsulfonyl)piperidin-4-yl)-5-(trifluoromethyl)pyrimidin-2-amine]", "IC50": "≤ 50"}
{"smiles": "CS(=O)(=O)N1CCC(Nc2ncc(C(F)(F)F)c(-c3cn(-c4ccccc4F)c(Br)n3)n2)CC1", "note": "[Example 461, 4-(2-Bromo-1-(2-fluorophenyl)-1H-imidazol-4-yl)-N-(1-(methylsulfonyl)piperidin-4-yl)-5-(trifluoromethyl)pyrimidin-2-amine]", "IC50": "≤ 50"}
{"smiles": "[2H]C([2H])([2H])NCc1cccc(-n2cnc(-c3nc(NC4CCN(S(C)(=O)=O)CC4)ncc3C(F)(F)F)c2)c1Cl", "note": "[Example 462, 4-(1-(2-Chloro-3-(((methyl-d3)amino)methyl)phenyl)-1H-imidazol-4-yl)-N-(1-(methylsulfonyl)piperidin-4-yl)-5-(trifluoromethyl)pyrimidin-2-amine]", "IC50": "≤ 50"}
{"smiles": "CS(=O)(=O)N1CCC(Nc2ncc(C(F)(F)F)c(-c3cn(-c4cccc(CN5CC(C#N)C5)c4Cl)cn3)n2)CC1", "note": "[Example 463, 1-(2-Chloro-3-(4-(2-((1-(methylsulfonyl)piperidin-4-yl)amino)-5-(trifluoromethyl)pyrimidin-4-yl)-1H-imidazol-1-yl)benzyl)azetidine-3-carbonitrile]", "IC50": "≤ 50"}
{"smiles": "CN1CCN(CCc2cccc(-n3cnc(-c4nc(NC5CCN(S(C)(=O)=O)CC5)ncc4C(F)(F)F)c3)c2Cl)CC1", "note": "[Example 464, 4-(1-(2-Chloro-3-(2-(4-methylpiperazin-1-yl)ethyl)phenyl)-1H-imidazol-4-yl)-N-(1-(methylsulfonyl)piperidin-4-yl)-5-(trifluoromethyl)pyrimidin-2-amine]", "IC50": "≤ 50"}
{"smiles": "CC(C)NCCc1cccc(-n2cnc(-c3nc(NC4CCN(S(C)(=O)=O)CC4)ncc3C(F)(F)F)c2)c1Cl", "note": "[Example 465, 4-(1-(2-Chloro-3-(2-(isopropylamino)ethyl)phenyl)-1H-imidazol-4-yl)-N-(1-(methylsulfonyl)piperidin-4-yl)-5-(trifluoromethyl)pyrimidin-2-amine]", "IC50": "≤ 50"}
{"smiles": "CCNCCc1cccc(-n2cnc(-c3nc(NC4CCN(S(C)(=O)=O)CC4)ncc3C(F)(F)F)c2)c1Cl", "note": "[Example 466, 4-(1-(2-Chloro-3-(2-(ethylamino)ethyl)phenyl)-1H-imidazol-4-yl)-N-(1-(methylsulfonyl)piperidin-4-yl)-5-(trifluoromethyl)pyrimidin-2-amine]", "IC50": "≤ 50"}
{"smiles": "CNCCc1cccc(-n2cnc(-c3nc(NC4CCN(S(C)(=O)=O)CC4)ncc3C(F)(F)F)c2)c1Cl", "note": "[Example 467, 4-(1-(2-Chloro-3-(2-(methylamino)ethyl)phenyl)-1H-imidazol-4-yl)-N-(1-(methylsulfonyl)piperidin-4-yl)-5-(trifluoromethyl)pyrimidin-2-amine]", "IC50": "≤ 50"}
{"smiles": "CC(C)NC(C)c1cccc(-n2cnc(-c3nc(NC4CCN(S(C)(=O)=O)CC4)ncc3C(F)(F)F)c2)c1Cl", "note": "(stereo not drawn) [Example 468, 4-(1-(2-Chloro-3-(1-(isopropylamino)ethyl)phenyl)-1H-imidazol-4-yl)-N-(1-(methylsulfonyl)piperidin-4-yl)-5-(trifluoromethyl)pyrimidin-2-amine]", "IC50": "≤ 50"}
{"smiles": "CC(c1cccc(-n2cnc(-c3nc(NC4CCN(S(C)(=O)=O)CC4)ncc3C(F)(F)F)c2)c1Cl)N1CCC1", "note": "(stereo not drawn) [Example 469, 4-(1-(3-(1-(Azetidin-1-yl)ethyl)-2-chlorophenyl)-1H-imidazol-4-yl)-N-(1-(methylsulfonyl)piperidin-4-yl)-5-(trifluoromethyl)pyrimidin-2-amine]", "IC50": "≤ 50"}
{"smiles": "CS(=O)(=O)N1CCC(Nc2ncc(C(F)(F)F)c(-c3cn(-c4cccc(CN5CC(C#N)C5)c4C(F)(F)F)cn3)n2)CC1", "note": "[Example 470, 1-(3-(4-(2-((1-(Methylsulfonyl)piperidin-4-yl)amino)-5-(trifluoromethyl)pyrimidin-4-yl)-1H-imidazol-1-yl)-2-(trifluoromethyl)benzyl)azetidine-3-carbonitrile]", "IC50": "≤ 50"}
{"smiles": "CS(=O)(=O)N1CCC(Nc2ncc(C(F)(F)F)c(-c3cn(-c4cccc(CN5CC[C@H](C#N)C5)c4C(F)(F)F)cn3)n2)CC1", "note": "[Example 471, (S)-1-(3-(4-(2-((1-(Methylsulfonyl)piperidin-4-yl)amino)-5-(trifluoromethyl)pyrimidin-4-yl)-1H-imidazol-1-yl)-2-(trifluoromethyl)benzyl)pyrrolidine-3-carbonitrile]", "IC50": "≤ 50"}
{"smiles": "CS(=O)(=O)N1CC[C@H](Nc2ncc(C(F)(F)F)c(-c3cn(-c4ccccc4C#N)cn3)n2)[C@H](F)C1", "note": "[Example 472, 2-(4-(2-(((3R,4S)-3-Fluoro-1-(methylsulfonyl)piperidin-4-yl)amino)-5-(trifluoromethyl)pyrimidin-4-yl)-1H-imidazol-1-yl)benzonitrile]", "IC50": "≤ 50"}
